Experimental data from patent publication US8475772B2, “Peptide-based oral care surface reagents for personal care” (E I du Pont de Nemours and Company, priority 2003, dated 2013).

How the values were obtained:
[1] = Phage ELISA on hair surfaces; type: binding, human; conditions: for Hair A450: phage clone on hair, 37° C. 15 min, anti-M13 HRP, mean of at least three replicates
Experimental: (§1) Enzyme-linked immunosorbent assay (ELISA) was used to evaluate the hair-binding specificity of selected phage-peptide clones. Phage-peptide clones identified in Examples 1 and 2 along with a randomly chosen control G-F9, KHGPDLLRSAPR (given as SEQ ID NO:63) were amplified. More than 10^14 pfu phages were added to pre-blocked hair surfaces.
(§2) A unique hair or pig skin-bottom 96-well apparatus was created by applying one layer of Parafilm® under the top 96-well block of a Minifold I Dot-Blot System (Schleicher & Schuell, Inc., Keene, N.H.), adding hair or a layer of hairless pig skin on top of the Parafilm® cover, and then tightening the apparatus. For each clone to be tested, the hair-covered well was incubated for 1 h at room temperature with 200 μL of blocking buffer, consisting of 2% non-fat dry milk (Schleicher & Schuell, Inc.) in TBS. A second Minifold system with pig skin at the bottom of the wells was treated with blocking buffer simultaneously to serve as a control. The blocking buffer was removed by inverting the systems and blotting them dry with paper towels. The systems were rinsed 6 times with wash buffer consisting of TBST-0.05%. The wells were filled with 200 μL of TBST-0.5% containing 1 mg/mL BSA and then 10 μL (over 10^12 copies) of purified phage stock was added to each well. The samples were incubated at 37° C. for 15 min with slow shaking. The non-binding phage was removed by washing the wells 10 to 20 times with TBST-0.5%. Then, 100 μL of horseradish peroxidase/anti-M13 antibody conjugate (Amersham USA, Piscataway, N.J.), diluted 1:500 in the blocking buffer, was added to each well and incubated for 1 h at room temperature. The conjugate solution was removed and the wells were washed 6 times with TBST-0.05%. TMB substrate (200 μL), obtained from Pierce Biotechnology (Rockford, Ill.) was added to each well and the color was allowed to develop for between 5 to 30 min, typically for 10 min, at room temperature. Then, stop solution (200 μL of 2 M H2SO4) was added to each well and the solution was transferred to a 96-well plate and the A450 was measured using a microplate spectrophotometer (Molecular Devices, Sunnyvale, Calif.). The resulting absorbance values, reported as the mean of at least three replicates, and the standard error of the mean (SEM) are given in Table 10.

[2] = Phage ELISA on pig skin surfaces (specificity control); type: binding; conditions: for Pig Skin A450: phage clone on pig skin, 37° C. 15 min, anti-M13 HRP, mean of at least three replicates
Experimental: as §1, §2

[3] = Titer-based phage binding assay on normal hair; design: species or system human; conditions: output pfu retained by 10 mg normal hair; input 10^14 pfu of phage clone; acid-eluted phage
Experimental: Phage clones displaying specific peptides were used for comparing the binding characteristics of different peptide sequences. A titer-based assay was used to quantify the phage binding. This assay measures the output pfu retained by 10 mg of hair surfaces, having a signal to noise ratio of 10^3 to 10^4. The input for all the phage clones was 10^14 pfu. It should be emphasized that this assay measures the peptide-expressing phage particle, rather than peptide binding.
Normal hairs were cut into 0.5 cm lengths and 10 mg of the cut hair was placed in each well of a 96-well filter plate (Qiagen). Then, the wells were filled with blocking buffer containing 1 mg/mL BSA in TBST-0.5% and incubated for 1 h at 4° C. The hairs were washed 5 times with TBST-0.5%. The wells were then filled with 1 mL of TBST-0.5% containing 1 mg/mL BSA and then purified phage clones (10^14 pfu) were added to each well. The hair samples were incubated for 15 min at room temperature and then washed 10 times with TBST-0.5%. The hairs were transferred to a clean well and 1.0 mL of a non-specific elution buffer, consisting of 1 mg/mL BSA in 0.2 M Glycine-HCl at pH 2.2, was added to each well. The samples were incubated for 10 min and then 160 μL of neutralization buffer (1 M Tris-HCl, pH 9.2) was added to each well. The eluted phages from each well were transferred to a new tube for titering and sequencing analysis.
To titer the bound phages, the eluted phage was diluted with SM buffer to prepare 10-fold serial dilutions of 10^1 to 10^8. A 10 μL aliquot of each dilution was incubated with 200 μL of mid-log phase E. coli ER2738 (New England BioLabs), and grown in LB medium for 20 min and then mixed with 3 mL of agarose top (LB medium with 5 mM MgCl2, and 0.7% agarose) at 45° C. This mixture was spread onto a LB medium/IPTG/Xgal plate (LB medium with 15 g/L agar, 0.05 g/L IPTG, and 0.04 g/L Xgal) and incubated overnight at 37° C.

[4] = MB50 ELISA of biotinylated peptides on hair; type: binding, human; conditions: for EC50: biotinylated peptide with C-terminal amidated cysteine; for binding affinity for hair (in words): respective substrate hair
Experimental: (§3) Hair-binding and skin-binding peptides were synthesized by Syn Pep Inc. (Dublin, Calif.). The peptides were biotinylated by adding a biotinylated lysine residue at the C-terminus of the amino acid binding sequences for detection purposes and an amidated cysteine was added to the C-terminus of the sequence.
(§4) For hair samples, the procedure used was as follows. The setup of the surface specific 96-well system used was the same as that described in Example 5. Briefly, the 96-wells with hair or pig skin surfaces were blocked with blocking buffer (SUPERBLOCK™ from Pierce Chemical Co., Rockford, Ill.) at room temperature for 1 h, followed by six washes with TBST-0.5%, 2 min each, at room temperature. Various concentrations of biotinylated, binding peptide were added to each well, incubated for 15 min at 37° C., and washed six times with TBST-0.5%, 2 min each, at room temperature. Then, streptavidin-horseradish peroxidase (HRP) conjugate (Pierce Chemical Co.) was added to each well (1.0 μg per well), and incubated for 1 h at room temperature. After the incubation, the wells were washed six times with TBST-0.5%, 2 min each at room temperature. Finally, the color development and the measurement were performed as described in Example 5.
(§5) The results were plotted as A450 versus the concentration of peptide using GraphPad Prism 4.0 (GraphPad Software, Inc., San Diego, Calif.).

[5] = Peptide competition ELISA on normal hair; type: binding, human
Experimental: The purpose of this Example was to test the peptide binding site specificity and affinity of the hair-binding peptide D21 using a competition ELISA. The ELISA assay only detects phage particles that remain bound to the hair surface.
The synthetic hair-binding peptide D21, given as SEQ ID NO:46, was synthesized by SynPep (Dublin, Calif.). As a control, an unrelated synthetic skin-binding peptide, given as SEQ ID NO:61, was added to the system. The experimental conditions were similar to those used in the ELISA method described in Example 5. Briefly, 100 μL of Binding Buffer (1×TBS with 0.1% Tween®20 and 1 mg/mL BSA) and 10^11 pfu of the pure D21 phage particles were added to each well of the 96-well filter plate, which contained a sample of normal hair. The synthetic peptide (100 μg) was added to each well (corresponding to concentration of 0.8 mM). The reactions were carried out at room temperature for 1 h with gentle shaking, followed by five washes with TBST-0.5%. The remaining steps were identical to the those used in the ELISA method described in Example 5. Each individual ELISA test was performed in triplicate; the values in Table 11 are the means of the triplicate determinations.

[6] = MB50 ELISA of biotinylated peptides on pig skin; type: binding; conditions: for EC50: Substrate Pig Skin, biotinylated peptide with C-terminal amidated cysteine; for binding affinity for skin (in words): pig skin
Experimental: as §3, §4
For the measurement of MB50 of the peptide-skin complexes, the following procedure was used. First, the pigskin was treated to block the endogenous biotin in the skin. This was done by adding streptavidin to the blocking buffer. After blocking the pigskin sample, the skin was treated with D-biotin to block the excess streptavidin binding sites. The remaining steps were identical to those used for the hair samples.
as §5

Substance	Hair A450 [1]	Pig Skin A450 [2]	Phage Titer [3]	further results
AKTHKHPAPSYS (Hair-binding peptide) [Clone C13]	0.375	0.024	–	–
DLHTVYH [Clone A]	–	–	7.50 × 10^4	–
EQISGSLVAAPW (Hair-binding peptide) [Clone A5]	0.431	0.256	–	–
GPHDTSSGGVRPNLHHTSKKEKRENRKVPFYSHSVTSRGNV (Hair-binding peptide) [Clone D5]	0.652	0.104	1.67 × 10^8	–
HIKPPTR [Clone B]	–	–	1.21 × 10^5	–
HLTVPWRGGGSAVPFYSHSQITLPNH (Hair-binding peptide) [Clone F]	–	–	1.11 × 10^6	–
HPMSAPR (Hair-binding peptide) [Clone I]	–	–	1.17 × 10^6	–
HPVWPAI [Clone D]	–	–	8.20 × 10^4	–
KHGPDLLRSAPR (Control peptide) [Clone G-F9, reference compound]	0.074	−0.137	–	–
KHPTYRQ [Clone H]	–	–	1.30 × 10^6	–
LGIPQNL [Clone D39]	0.685	0.086	–	–
LPRIANTWSPS [Clone F35]	–	–	–	EC50 ([4]; Substrate Bleached Hair): 3 µM; binding affinity for hair (in words) [4]: high
MHAHSIA [Clone A36]	0.585	0.173	–	–
MPKYYLQ [Clone J]	–	–	1.24 × 10^6	–
MPLYYLQ [Clone E]	–	–	1.70 × 10^5	–
NSPGYQADSVAIG (Hair-binding peptide) [Clone D30]	0.414	0.287	–	–
RTNAADHPAAVT [Clone D21]	1.051	0.04	–	selectivity for hair compared to pig skin ([1]; phage ELISA hair vs pig skin): highest selectivity for hair; binding affinity for hair (in words) ([1]; phage ELISA, versus control G-F9): very strong affinity for hair; affinity for pig skin (in words) ([2]; phage ELISA): very low affinity for pig skin; A450 ([5]; 10^11 pfu D21 phage on normal hair, synthetic peptide 100 μg per well (0.8 mM), mean of triplicate): 1.878; competition with phage clone D21 for hair binding sites (in words) ([5]; synthetic peptide 0.8 mM): does compete with the phage clone D21 for the same binding sites on the hair surface; EC50 ([4]; Substrate Normal Hair): 2 µM; binding affinity for hair (in words) [4]: high; EC50 [6]: 40 µM; binding affinity for skin (in words) [6]: relatively low
SLNWVTIPGPKI (Hair-binding peptide) [Clone C10]	0.542	0.032	–	–
TAATTSP [Clone B1]	0.42	0.127	–	–
TDMQAPTKSYSN (Hair-binding peptide) [Clone C5]	0.548	0.047	–	–
TPALDGLRQPLR (Hair-binding peptide) [Clone C18]	0.34	0.132	–	–
TPFHSPENAPGS [SEQ ID NO: 61]	–	–	–	EC50 [6]: 0.7 µM; binding affinity for skin (in words) [6]: high
TPPELLHGDPRS [Clone I-B5]	–	–	–	EC50 ([4]; Substrate Normal and Bleached Hair): 0.3 µM; binding affinity for hair (in words) [4]: high; EC50 [6]: > 100 µM; binding affinity for skin (in words) [6]: relatively low
